Source: patent publication EP4316461A1, “A PRESERVATIVE COMPOSITION” (BRAIN Biotech AG, priority 2022, dated 2024)

Legend:
Type in all cases: cell-based
[1] = tested on: Actinomyces viscosus; experiment: Antimicrobial activity (MIC); conditions: Strain ID DSM43798; potato dextrose broth pH 3.8
[2] = tested on: Alicyclobacillus acidoterrestris; experiment: Antimicrobial activity (MIC); conditions: Strain ID DSM 2498; potato dextrose broth pH 3.8
[3] = tested on: Alternaria alternata; experiment: Antimicrobial activity (MIC); conditions: Strain ID DSM 12633; potato dextrose broth pH 3.8
[4] = tested on: Aspergillus brasiliensis; experiment: Antimicrobial activity (MIC); conditions: Strain ID DSM 1988; potato dextrose broth pH 3.8
[5] = tested on: Bacillus cereus; experiment: Antimicrobial activity (MIC); conditions: Strain ID DSM4490; potato dextrose broth pH 3.8
[6] = tested on: Bacillus licheniformis; experiment: Antimicrobial activity (MIC); conditions: Strain ID DSM 13; potato dextrose broth pH 3.8
[7] = tested on: Botrytis cinerea; experiment: Antimicrobial activity (MIC); conditions: Strain ID DSM 5145; potato dextrose broth pH 3.8
[8] = tested on: Brettanomyces naardenensis; experiment: Antimicrobial activity (MIC); conditions: Strain ID CBS 6115; potato dextrose broth pH 3.8
[9] = tested on: Byssochlamys fulva; experiment: Antimicrobial activity (MIC); conditions: Strain ID DSM 1808; potato dextrose broth pH 3.8
[10] = tested on: Campylobacter jejuni; experiment: Antimicrobial activity (MIC); conditions: Strain ID DSM 4688; potato dextrose broth pH 3.8
[11] = tested on: Candida albicans; experiment: Antimicrobial activity (MIC); conditions: Strain ID ATCC10231; potato dextrose broth pH 3.8
[12] = tested on: Candida parapsilosis; experiment: Antimicrobial activity (MIC); conditions: Strain ID ATCC 20384; potato dextrose broth pH 3.8
[13] = tested on: Cladosporium cladosporioides; experiment: Antimicrobial activity (MIC); conditions: Strain ID DSM19653; potato dextrose broth pH 3.8
[14] = tested on: Clostridium perfringens; experiment: microbe, parasite or virus in culture; conditions: Strain ID DSM 756; potato dextrose broth pH 3.8
[15] = tested on: Clostridium sporogenes; experiment: Antimicrobial activity (MIC); conditions: Strain ID ATCC 19404; potato dextrose broth pH 3.8
[16] = tested on: Corynebacterium xerosis; experiment: Antimicrobial activity (MIC); conditions: Strain ID DSM 20743; potato dextrose broth pH 3.8
[17] = tested on: Cutibacterium acnes; experiment: Antimicrobial activity (MIC); conditions: Strain ID DSM 1897; potato dextrose broth pH 3.8
[18] = tested on: Enterobacter cloacae; experiment: Antimicrobial activity (MIC); conditions: Strain ID DSM 6234; potato dextrose broth pH 3.8
[19] = tested on: Enterococcus faecalis; experiment: Antimicrobial activity (MIC); conditions: Strain ID ATCC 7080; potato dextrose broth pH 3.8
[20] = tested on: Fusobacterium nucleatum subsp. vincentii; experiment: Antimicrobial activity (MIC); conditions: Strain ID DSM 19507; potato dextrose broth pH 3.8
[21] = tested on: Gluconacetobacter liquefaciens; experiment: Antimicrobial activity (MIC); conditions: Strain ID DSM 5603; potato dextrose broth pH 3.8
[22] = tested on: Lactobacillus paracasei ssp. paracasei; experiment: Antimicrobial activity (MIC); conditions: Strain ID DSM 46331; potato dextrose broth pH 3.8
[23] = tested on: Lactobacillus plantarum ssp. plantarum; experiment: Antimicrobial activity (MIC); conditions: Strain ID DSM 20174; potato dextrose broth pH 3.8
[24] = tested on: Leuconostoc lactis; experiment: Antimicrobial activity (MIC); conditions: Strain ID DSM 20202; potato dextrose broth pH 3.8
[25] = tested on: Leuconostoc mesenteroides ssp. mesenteroides; experiment: Antimicrobial activity (MIC); conditions: Strain ID DSM 20343; potato dextrose broth pH 3.8
[26] = tested on: Listeria monocytogenes; experiment: Antimicrobial activity (MIC); conditions: Strain ID DSM 20600; potato dextrose broth pH 3.8
[27] = tested on: Malassezia furfur; experiment: Antimicrobial activity (MIC); conditions: Strain ID DSM 6170; potato dextrose broth pH 3.8
[28] = tested on: Pasteurella multocida ssp. multocida; experiment: Antimicrobial activity (MIC); conditions: Strain ID DSM 16031; potato dextrose broth pH 3.8
[29] = tested on: Penicillium expansum; experiment: Antimicrobial activity (MIC); conditions: Strain ID DSM 62841; potato dextrose broth pH 3.8
[30] = tested on: Phanerochaete chrysosporium; experiment: Antimicrobial activity (MIC); conditions: Strain ID DSM 1556; potato dextrose broth pH 3.8
[31] = tested on: Porphyromonas gingivalis; experiment: Antimicrobial activity (MIC); conditions: Strain ID DSM 20709; potato dextrose broth pH 3.8
[32] = tested on: Pseudomonas aeruginosa; experiment: Antimicrobial activity (MIC); conditions: Strain ID DSM 1117; potato dextrose broth pH 3.8
[33] = tested on: Pseudomonas fluorescens; experiment: Antimicrobial activity (MIC); conditions: Strain ID DSM50337; potato dextrose broth pH 3.8
[34] = tested on: Saccharomyces cerevisiae; experiment: Antimicrobial activity (MIC); conditions: Strain ID DSM 2548; potato dextrose broth pH 3.8
[35] = tested on: Salmonella enterica ssp. enterica Ser. typhimurium; experiment: Antimicrobial activity (MIC); conditions: Strain ID DSM 17058; potato dextrose broth pH 3.8
[36] = tested on: Staphylococcus aureus; experiment: Antimicrobial activity (MIC); conditions: Strain ID DSM 2569; potato dextrose broth pH 3.8
[37] = tested on: Streptococcus mutans; experiment: Antimicrobial activity (MIC); conditions: Strain ID DSM 20523; potato dextrose broth pH 3.8
[38] = tested on: Yarrowia lipolytica; experiment: Antimicrobial activity (MIC); conditions: Strain ID DSM 70561; potato dextrose broth pH 3.8
[39] = tested on: Zygosaccharomyces bailii; experiment: Antimicrobial activity (MIC); conditions: Strain ID DSM 70834; potato dextrose broth pH 3.8
[40] = tested on: Zygosaccharomyces rouxii; experiment: Antimicrobial activity (MIC); conditions: Strain ID DSM 7525; potato dextrose broth pH 3.8

Compound | Minimal Inhibitory Concentration (MIC) [1] [µg/mL] | Minimal Inhibitory Concentration (MIC) [2] [µg/mL] | Minimal Inhibitory Concentration (MIC) [3] [µg/mL] | Minimal Inhibitory Concentration (MIC) [4] [µg/mL] | Minimal Inhibitory Concentration (MIC) [5] [µg/mL] | Minimal Inhibitory Concentration (MIC) [6] [µg/mL] | Minimal Inhibitory Concentration (MIC) [7] [µg/mL] | Minimal Inhibitory Concentration (MIC) [8] [µg/mL] | Minimal Inhibitory Concentration (MIC) [9] [µg/mL] | Minimal Inhibitory Concentration (MIC) [10] [µg/mL] | Minimal Inhibitory Concentration (MIC) [11] [µg/mL] | Minimal Inhibitory Concentration (MIC) [12] [µg/mL] | Minimal Inhibitory Concentration (MIC) [13] [µg/mL] | Minimal Inhibitory Concentration (MIC) [14] [µg/mL] | Minimal Inhibitory Concentration (MIC) [15] [µg/mL] | Minimal Inhibitory Concentration (MIC) [16] [µg/mL] | Minimal Inhibitory Concentration (MIC) [17] [µg/mL] | Minimal Inhibitory Concentration (MIC) [18] [µg/mL] | Minimal Inhibitory Concentration (MIC) [19] [µg/mL] | Minimal Inhibitory Concentration (MIC) [20] [µg/mL] | further results
C[C@@H]1O[C@@H](O[C@H]2[C@H](O[C@H]3CC[C@@]4(C)C(CC[C@]5(C)[C@@H]4CC=C4[C@H]6CC(C)(C)CC[C@]6(C(=O)O)CC[C@]45C)C3(C)CO)OC[C@H](O)[C@@H]2O[C@@H]2OC[C@H](O)[C@H](O)[C@H]2O)[C@H](O)[C@H](O)[C@H]1O (some centres unmarked) [B, Clemontanoside C [80666-65-5]] | > 80 | 140 | > 80 | > 80 | > 80 | > 80 | > 80 | > 80 | > 80 | > 80 | > 80 | > 80 | > 80 | > 80 | 80 | > 80 | > 80 | > 80 | > 80 | > 80 | Minimal Inhibitory Concentration (MIC) [21]: 40 µg/mL; Minimal Inhibitory Concentration (MIC) [22]: > 80 µg/mL; Minimal Inhibitory Concentration (MIC) [23]: 400 µg/mL; Minimal Inhibitory Concentration (MIC) [24]: > 80 µg/mL; Minimal Inhibitory Concentration (MIC) [25]: > 80 µg/mL; Minimal Inhibitory Concentration (MIC) [26]: > 80 µg/mL; Minimal Inhibitory Concentration (MIC) [27]: 80 µg/mL; Minimal Inhibitory Concentration (MIC) [28]: > 80 µg/mL; Minimal Inhibitory Concentration (MIC) [29]: >500 µg/mL; Minimal Inhibitory Concentration (MIC) [30]: > 80 µg/mL; Minimal Inhibitory Concentration (MIC) [31]: > 80 µg/mL; Minimal Inhibitory Concentration (MIC) [32]: > 80 µg/mL; Minimal Inhibitory Concentration (MIC) [33]: > 80 µg/mL; Minimal Inhibitory Concentration (MIC) [34]: > 80 µg/mL; Minimal Inhibitory Concentration (MIC) [35]: > 80 µg/mL; Minimal Inhibitory Concentration (MIC) [36]: > 80 µg/mL; Minimal Inhibitory Concentration (MIC) [37]: > 80 µg/mL; Minimal Inhibitory Concentration (MIC) [38]: > 80 µg/mL; Minimal Inhibitory Concentration (MIC) [39]: > 80 µg/mL; Minimal Inhibitory Concentration (MIC) [40]: 500 µg/mL
Transsylvanoside H [C, Transsylvanoside H [174423-50-8]] | > 80 | 40 | > 80 | > 80 | > 80 | > 80 | > 80 | > 80 | > 80 | > 80 | > 80 | > 80 | > 80 | > 80 | 80 | > 80 | > 80 | > 80 | > 80 | 80 | Minimal Inhibitory Concentration (MIC) [21]: 140 µg/mL; Minimal Inhibitory Concentration (MIC) [22]: > 80 µg/mL; Minimal Inhibitory Concentration (MIC) [23]: 40 µg/mL; Minimal Inhibitory Concentration (MIC) [24]: 80 µg/mL; Minimal Inhibitory Concentration (MIC) [25]: > 80 µg/mL; Minimal Inhibitory Concentration (MIC) [26]: > 80 µg/mL; Minimal Inhibitory Concentration (MIC) [27]: > 80 µg/mL; Minimal Inhibitory Concentration (MIC) [28]: > 80 µg/mL; Minimal Inhibitory Concentration (MIC) [29]: >500 µg/mL; Minimal Inhibitory Concentration (MIC) [30]: > 80 µg/mL; Minimal Inhibitory Concentration (MIC) [31]: > 80 µg/mL; Minimal Inhibitory Concentration (MIC) [32]: > 80 µg/mL; Minimal Inhibitory Concentration (MIC) [33]: > 80 µg/mL; Minimal Inhibitory Concentration (MIC) [34]: > 80 µg/mL; Minimal Inhibitory Concentration (MIC) [35]: > 80 µg/mL; Minimal Inhibitory Concentration (MIC) [36]: > 80 µg/mL; Minimal Inhibitory Concentration (MIC) [37]: > 80 µg/mL; Minimal Inhibitory Concentration (MIC) [38]: > 80 µg/mL; Minimal Inhibitory Concentration (MIC) [39]: > 80 µg/mL; Minimal Inhibitory Concentration (MIC) [40]: 500 µg/mL
